Test systems include EKVX; OVCAR-3; MOLT-4; CCRF-CEM; LOX IMVI; K562; COLO 205; SF-295; NCI-H23; SNB-19; IGROV-1; UACC-62; SK-OV-3; HOP-92; HT-29; SF-268; SF-539; SK-MEL-5; HCT-116; SN12C.
Common to all, as to assay: DTP human tumour cell line panel, 48 h

The structures appear in SMILES notation.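 Test compounds were applied to cells in 96-well plates for 48 hours at 5 doses. GI50 marks 50% less growth.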 Activity calls are given as the source filed them. Cut-off read from the data, not from the text of the source: active = GI50 up to about 1.1 µM and inactive = higher.

The text below walks through data of ChEMBL document CHEMBL1201862, “PubChem BioAssay data set” (2004).

As a reminder, the GI50 is the concentration giving 50% growth inhibition. Turning to `C[S+](C)([O-])=Nn1c(=O)n2n(c1=O)[C@H]1CC[C@@H]2C1`, the GI50 in the test on EKVX, in the test on OVCAR-3, in the test with MOLT-4, in the test with CCRF-CEM, in the test on LOX IMVI and in the test with K562 was > 100 µM (inactive) throughout. In addition, the GI50 with COLO 205, in the test on SF-295, in the test with NCI-H23, with SNB-19, in the test with IGROV-1 and in the test with UACC-62 was > 100 µM (inactive) each time. For the same compound, the GI50 in the test with SK-OV-3, with HOP-92, with HT-29, in the test with SF-268, with SF-539 and in the test with SK-MEL-5 was > 100 µM (inactive) each time.

Regarding `COc1cc(C2c3cc4c(cc3[C@@H](Nc3cnc5ccccc5c3)C3COC(=O)[C@H]23)OCO4)cc(OC)c1O` (some centres not stated), the GI50 is 1.27 µM (inactive) with EKVX; 1.65 µM (inactive) in the test with OVCAR-3; < 0.01 µM (active) in the test on MOLT-4; 0.043 µM (active) with CCRF-CEM; 0.37 µM (active) in the test with LOX IMVI; 0.649 µM (active) with K562. Besides, the GI50 with HCT-116 was 0.46 µM (active); in the test on SN12C, 0.338 µM (active); with COLO 205, 1.28 µM (inactive); in the test on SF-295, 0.148 µM (active); in the test with NCI-H23, 0.311 µM (active); in the test with SNB-19 it was 0.221 µM (active). Further, the GI50 was 1.39 µM (inactive) in the test on IGROV-1; 0.301 µM (active) with UACC-62; 0.615 µM (active) with SK-OV-3; 0.381 µM (active) in the test with HOP-92; 0.634 µM (active) in the test with HT-29; 0.327 µM (active) in the test with SF-268. Further, the GI50 in the test on SF-539 is 0.168 µM (active); with SK-MEL-5, 0.193 µM (active).

Consider `C[C@]12CC[C@H](O)C=C1CC[C@@H]1[C@@H]2CC[C@]2(C)C(c3ccc(=O)oc3)CC[C@]12O` (some centres not stated), for which the GI50 in the test on EKVX is 0.0311 µM (active); in the test with OVCAR-3, 0.0125 µM (active); in the test on CCRF-CEM, 0.0125 µM (active); in the test on LOX IMVI it was 0.0125 µM (active); with K562, 0.0125 µM (active); in the test on HCT-116 it was 0.0125 µM (active). Also, the GI50 was 0.0125 µM (active) in the test on SN12C; 0.033 µM (active) in the test on COLO 205; 0.0134 µM (active) in the test with SF-295; 0.0125 µM (active) in the test on NCI-H23; 0.0327 µM (active) in the test on SNB-19; 0.0141 µM (active) in the test with IGROV-1. In addition, the GI50 in the test with UACC-62 is 0.0154 µM (active); in the test with SK-OV-3, 0.0294 µM (active); in the test on HOP-92, 0.014 µM (active); in the test on HT-29, 0.035 µM (active); in the test on SF-268 it was 0.0125 µM (active); in the test with SF-539, 0.0125 µM (active). Moreover, the GI50 in the test on SK-MEL-5 was 0.0125 µM (active).

For the compound `C=C1C(=O)OC2C1CC1OC2C(C)CCC/C(C)=C\CCC1(C)O` (configuration not stated), the GI50 in the test on EKVX was 20.4 µM (inactive); in the test with OVCAR-3, 9.75 µM (inactive); in the test on MOLT-4, 8.15 µM (inactive); in the test with CCRF-CEM, 6.82 µM (inactive); with LOX IMVI it was 6.55 µM (inactive); with K562, 12.7 µM (inactive). In addition, the GI50 was 13.5 µM (inactive) in the test on HCT-116; 19.5 µM (inactive) in the test on SN12C; 15.8 µM (inactive) in the test with COLO 205; 37.5 µM (inactive) with SF-295; 9.25 µM (inactive) in the test with NCI-H23; 49.1 µM (inactive) in the test with SNB-19. Besides, the GI50 in the test with IGROV-1 was 13.9 µM (inactive); in the test on UACC-62, 9.04 µM (inactive); in the test on SK-OV-3 it was 65.3 µM (inactive); with HOP-92 it was 10.7 µM (inactive); in the test on HT-29, 30.3 µM (inactive); with SF-268 it was 13 µM (inactive). Further, the GI50 in the test on SF-539 was 16.5 µM (inactive); in the test with SK-MEL-5 it was 5.14 µM (inactive).

As for `NCCCNCCSSCc1ccccc1CSSCCNCCCN`, the GI50 in the test with EKVX is > 100 µM (inactive); with OVCAR-3, 73.8 µM (inactive); with MOLT-4 it was 22 µM (inactive); in the test with CCRF-CEM, 4.54 µM (inactive); with LOX IMVI, 61.1 µM (inactive); in the test with K562, 23.6 µM (inactive). Moreover, the GI50 is > 100 µM (inactive) in the test with SN12C; 39.4 µM (inactive) in the test with COLO 205; > 100 µM (inactive) with SF-295; > 100 µM (inactive) in the test on NCI-H23; > 100 µM (inactive) with SNB-19; > 100 µM (inactive) in the test on IGROV-1. Moreover, the GI50 in the test with UACC-62 was 34.1 µM (inactive); with SK-OV-3 it was > 100 µM (inactive); with HOP-92, 25.9 µM (inactive); in the test on HT-29 it was 14.2 µM (inactive); in the test with SF-268 it was 85.1 µM (inactive); in the test with SF-539 it was > 100 µM (inactive). In the test with SK-MEL-5, the GI50 was 79.3 µM (inactive).

`CCN(CC)CCCNc1ncc(C)c2[nH]c3ccncc3c12`: the GI50 with EKVX was 16.1 µM (inactive); in the test with OVCAR-3, 12.2 µM (inactive); in the test with MOLT-4, 2.65 µM (inactive); in the test with CCRF-CEM it was 21.6 µM (inactive); in the test on LOX IMVI, 3.64 µM (inactive); with K562, 14.8 µM (inactive). The GI50 in the test on HCT-116 is 6.58 µM (inactive); in the test on SN12C, 4.88 µM (inactive); in the test on COLO 205, 4.13 µM (inactive); with SF-295 it was 11.2 µM (inactive); in the test with NCI-H23, 12.7 µM (inactive); in the test with SNB-19, 15.1 µM (inactive). In addition, the GI50 in the test on IGROV-1 was 5.37 µM (inactive); in the test with UACC-62 it was 8.99 µM (inactive); in the test on SK-OV-3, 5.82 µM (inactive); in the test with HOP-92, 6.1 µM (inactive); with HT-29, 4.22 µM (inactive); with SF-268, 6.75 µM (inactive). Moreover, the GI50 in the test with SF-539 was 6.5 µM (inactive); in the test with SK-MEL-5, 13.6 µM (inactive).

Turning to `CC1(C)N=C(N)N=C(N)N1c1ccc(OCCCOc2ccccc2)c(Cl)c1`, the GI50 was 0.303 µM (active) with EKVX; 0.406 µM (active) with OVCAR-3; 0.0336 µM (active) in the test on MOLT-4; 0.175 µM (active) with CCRF-CEM; 0.0457 µM (active) with LOX IMVI; 2.48 µM (inactive) with K562. The GI50 in the test with HCT-116 is 0.026 µM (active); with SN12C, 0.202 µM (active); in the test on COLO 205 it was 0.112 µM (active); in the test with SF-295 it was 0.538 µM (active); in the test on NCI-H23 it was 0.239 µM (active); in the test on SNB-19, 0.0379 µM (active). The GI50 in the test on IGROV-1 was < 0.0301 µM (active); in the test with UACC-62, 0.472 µM (active); in the test with SK-OV-3, 7.31 µM (inactive); in the test with HOP-92, 0.409 µM (active); with HT-29, 0.0161 µM (active); in the test with SF-268, 0.0585 µM (active). The GI50 in the test with SF-539 is 0.336 µM (active); in the test on SK-MEL-5 it was 0.265 µM (active).

With `COc1ccc2c(c1)c1cc(OC)ccc1n2CCCCOc1ccc(-c2c3ccccc3c(-c3ccc(OCCCCn4c5ccc(OC)cc5c5cc(OC)ccc54)cc3)c3ccccc23)cc1`, the GI50 in the test on EKVX, with OVCAR-3, with MOLT-4, in the test on CCRF-CEM, in the test on LOX IMVI and in the test with K562 was > 100 µM (inactive) each time. The GI50 in the test with HCT-116, with SN12C, in the test with COLO 205, in the test with SNB-19, with IGROV-1 and in the test on UACC-62 was > 100 µM (inactive) throughout. Moreover, the GI50 with SK-OV-3, in the test on HOP-92, with SF-268 and in the test with SF-539 was > 100 µM (inactive) in each case.
